Assay results reported in ChEMBL document CHEMBL1149262, “Monoamine transporter binding, locomotor activity, and drug discrimination properties of 3-(4-substituted-phenyl)tropane-2-carboxylic acid methyl ester isomers” (J Med Chem, 2004).
Activity calls are given as the source filed them. The calls are words filed in the database; no cut-off is given here.

What was measured:
[1] = system: Mus musculus; assay: Locomotor activity in CD1 mouse assessed as stimulation at 3 mg/kg, ip after 1 hr relative to control; format: functional; conditions: route intraperitoneal
[2] = target: Sodium-dependent dopamine transporter (Homo sapiens, UniProt Q01959); assay: Displacement of [3H]WIN-35428 from DAT
[3] = system: Mus musculus; assay: Locomotor activity in CD1 mouse assessed as stimulation at 3 mg/kg, ip after 2 hrs relative to control; format: functional; conditions: route intraperitoneal
[4] = system: Mus musculus; assay: Activity in CD1 mouse assessed as circling at 100 mg/kg, ip after 4 hrs; format: functional, organism-based; parameters: dose 100 mg/kg
[5] = system: Mus musculus; assay: Activity in CD1 mouse assessed as stereotypy at 10 mg/kg, ip after 4 hrs; format: functional, organism-based; parameters: dose 10 mg/kg
[6] = target: Sodium-dependent serotonin transporter (Homo sapiens, UniProt P31645)
Description: Displacement of [3H]paroxetine from 5HTT

[7] = system: Mus musculus; assay: Activity in CD1 mouse assessed as ptosis at 100 mg/kg, ip after 4 hrs; format: functional, organism-based; parameters: dose 100 mg/kg
[8] = system: Mus musculus; assay: Activity in CD1 mouse assessed as stereotypy at 100 mg/kg, ip after 4 hrs; format: functional, organism-based; parameters: dose 100 mg/kg
[9] = system: Mus musculus; assay: Locomotor activity in CD1 mouse assessed as stimulation at 1 mg/kg, ip after 1 hr relative to control; format: functional; conditions: route intraperitoneal
[10] = system: Mus musculus; assay: Locomotor activity in CD1 mouse assessed as stimulation at 10 mg/kg, ip after 1 hr relative to control; format: functional; conditions: route intraperitoneal
[11] = system: Rattus norvegicus; assay: Drug discrimination effect in CD Albino rat assessed as percent of rat choosing cocaine lever at 3 mg/kg, ip; format: functional; conditions: route intraperitoneal
[12] = system: Rattus norvegicus; assay: Drug discrimination effect in CD Albino rat assessed as percent of rat choosing cocaine lever at 10 mg/kg, ip; format: functional; conditions: route intraperitoneal
[13] = system: Mus musculus; assay: Locomotor activity in CD1 mouse assessed as stimulation at 3 mg/kg, ip after 4 hrs relative to control; format: functional; conditions: route intraperitoneal
[14] = system: Rattus norvegicus; assay: Drug discrimination effect in CD Albino rat assessed as percent of rat choosing cocaine lever at 5.6 mg/kg, ip; format: functional; conditions: route intraperitoneal
[15] = system: Mus musculus; assay: Activity in CD1 mouse assessed as ptosis at 10 mg/kg, ip after 4 hrs; format: functional, organism-based; parameters: dose 10 mg/kg
[16] = system: Mus musculus; assay: Activity in CD1 mouse assessed as death at 100 mg/kg, ip after 4 hrs; format: functional, organism-based; parameters: dose 100 mg/kg
[17] = system: Mus musculus; assay: Locomotor activity in ip dosed CD1 mouse in peak hour; format: functional
[18] = system: Mus musculus; assay: Locomotor activity in CD1 mouse assessed as stimulation at 30 mg/kg, ip after 1 hr relative to control; format: functional; conditions: route intraperitoneal
[19] = system: Mus musculus; assay: Activity in CD1 mouse assessed as straub tail at 100 mg/kg, ip after 4 hrs; format: functional, organism-based; parameters: dose 100 mg/kg
[20] = system: Mus musculus; assay: Locomotor activity in CD1 mouse assessed as stimulation at 30 mg/kg, ip after 4 hrs relative to control; format: functional; conditions: route intraperitoneal
[21] = system: Mus musculus; assay: Locomotor activity in CD1 mouse assessed as stimulation at 10 mg/kg, ip after 4 hrs relative to control; format: functional; conditions: route intraperitoneal
[22] = system: Mus musculus; assay: Locomotor activity in CD1 mouse assessed as stimulation at 1 mg/kg, ip after 2 hrs relative to control; format: functional; conditions: route intraperitoneal
[23] = system: Mus musculus; assay: Activity in CD1 mouse assessed as hypoactivity at 100 mg/kg, ip after 4 hrs; format: functional, organism-based; parameters: dose 100 mg/kg
[24] = system: Mus musculus; assay: Locomotor activity in CD1 mouse assessed as stimulation at 30 mg/kg, ip after 3 hrs relative to control; format: functional; conditions: route intraperitoneal
[25] = system: Mus musculus; assay: Locomotor activity in CD1 mouse assessed as stimulation at 10 mg/kg, ip after 2 hrs relative to control; format: functional; conditions: route intraperitoneal
[26] = system: Mus musculus; assay: Activity in CD1 mouse assessed as hypoactivity at 10 mg/kg, ip after 4 hrs; format: functional, organism-based; parameters: dose 10 mg/kg
[27] = system: Mus musculus; assay: Locomotor activity in CD1 mouse assessed as stimulation at 3 mg/kg, ip after 3 hrs relative to control; format: functional; conditions: route intraperitoneal
[28] = system: Mus musculus; assay: Locomotor activity in CD1 mouse assessed as stimulation at 10 mg/kg, ip after 3 hrs relative to control; format: functional; conditions: route intraperitoneal
[29] = system: Mus musculus; assay: Activity in CD1 mouse assessed as convulsions at 100 mg/kg, ip after 4 hrs; format: functional, organism-based; parameters: dose 100 mg/kg
[30] = system: Mus musculus; assay: Locomotor activity in CD1 mouse assessed as stimulation at 1 mg/kg, ip after 4 hrs relative to control; format: functional; conditions: route intraperitoneal
[31] = system: Rattus norvegicus; assay: Cocaine discrimination in ip dosed CD Albino rat; format: functional
[32] = system: Mus musculus; assay: Locomotor activity in CD1 mouse assessed as stimulation at 1 mg/kg, ip after 3 hrs relative to control; format: functional; conditions: route intraperitoneal
[33] = system: Mus musculus; assay: Locomotor activity in CD1 mouse assessed as stimulation at 30 mg/kg, ip after 2 hrs relative to control; format: functional; conditions: route intraperitoneal
[34] = system: Rattus norvegicus; assay: Drug discrimination effect in CD Albino rat assessed as percent of rat choosing cocaine lever at 30 mg/kg, ip; format: functional; conditions: route intraperitoneal
[35] = system: Rattus norvegicus; assay: Drug discrimination effect in CD Albino rat assessed as percent of rat choosing cocaine lever at 17 mg/kg, ip; format: functional; conditions: route intraperitoneal
[36] = system: Mus musculus; assay: Locomotor activity in CD1 mouse assessed as stimulation at 100 mg/kg, ip after 3 hrs relative to control; format: functional; conditions: route intraperitoneal
[37] = system: Rattus norvegicus; assay: Drug discrimination effect in CD Albino rat assessed as percent of rat choosing cocaine lever at 1 mg/kg, ip; format: functional; conditions: route intraperitoneal
[38] = system: Rattus norvegicus; assay: Drug discrimination effect in CD Albino rat assessed as percent of rat choosing cocaine lever at 1.7 mg/kg, ip; format: functional; conditions: route intraperitoneal
[39] = system: Mus musculus; assay: Locomotor activity in CD1 mouse assessed as stimulation at 100 mg/kg, ip after 2 hrs relative to control; format: functional; conditions: route intraperitoneal
[40] = system: Mus musculus; assay: Activity in CD1 mouse assessed as hyperactivity at 100 mg/kg, ip after 4 hrs; format: functional, organism-based; parameters: dose 100 mg/kg
[41] = system: Mus musculus; assay: Locomotor activity in CD1 mouse assessed as stimulation at 100 mg/kg, ip after 1 hr relative to control; format: functional; conditions: route intraperitoneal
[42] = system: Mus musculus; assay: Locomotor activity in CD1 mouse assessed as stimulation at 100 mg/kg, ip after 4 hrs relative to control; format: functional; conditions: route intraperitoneal
[43] = target: Sodium-dependent noradrenaline transporter (Homo sapiens, UniProt P23975); assay: Displacement of [3H]nisoxetine from NET
[44] = system: Mus musculus; assay: Activity in CD1 mouse assessed as slight or intermittent hyperactivity at 10 mg/kg, ip after 4 hrs; format: functional, organism-based; parameters: dose 10 mg/kg
[45] = system: Mus musculus; assay: Activity in CD1 mouse assessed as flattened body posture at 100 mg/kg, ip after 4 hrs; format: functional, organism-based; parameters: dose 100 mg/kg

Sequence of Sodium-dependent serotonin transporter (P31645 whole entry): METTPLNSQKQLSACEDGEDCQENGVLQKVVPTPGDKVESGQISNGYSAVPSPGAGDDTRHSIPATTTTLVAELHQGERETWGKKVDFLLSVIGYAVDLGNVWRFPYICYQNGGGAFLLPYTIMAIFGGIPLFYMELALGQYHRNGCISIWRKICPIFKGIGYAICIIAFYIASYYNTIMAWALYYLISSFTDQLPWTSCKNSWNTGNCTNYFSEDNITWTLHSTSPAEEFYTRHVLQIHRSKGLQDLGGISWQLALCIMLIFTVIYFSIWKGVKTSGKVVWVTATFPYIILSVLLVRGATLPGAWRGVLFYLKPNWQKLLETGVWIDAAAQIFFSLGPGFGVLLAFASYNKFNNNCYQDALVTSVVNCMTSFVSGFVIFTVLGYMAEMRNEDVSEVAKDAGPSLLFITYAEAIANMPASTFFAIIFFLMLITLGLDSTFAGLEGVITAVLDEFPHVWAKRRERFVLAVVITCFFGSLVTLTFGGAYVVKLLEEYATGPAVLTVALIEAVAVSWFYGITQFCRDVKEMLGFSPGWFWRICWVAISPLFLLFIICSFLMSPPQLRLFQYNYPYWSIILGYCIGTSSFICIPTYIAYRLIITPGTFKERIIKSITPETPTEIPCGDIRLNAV
Sequence of Sodium-dependent noradrenaline transporter (P23975 whole entry): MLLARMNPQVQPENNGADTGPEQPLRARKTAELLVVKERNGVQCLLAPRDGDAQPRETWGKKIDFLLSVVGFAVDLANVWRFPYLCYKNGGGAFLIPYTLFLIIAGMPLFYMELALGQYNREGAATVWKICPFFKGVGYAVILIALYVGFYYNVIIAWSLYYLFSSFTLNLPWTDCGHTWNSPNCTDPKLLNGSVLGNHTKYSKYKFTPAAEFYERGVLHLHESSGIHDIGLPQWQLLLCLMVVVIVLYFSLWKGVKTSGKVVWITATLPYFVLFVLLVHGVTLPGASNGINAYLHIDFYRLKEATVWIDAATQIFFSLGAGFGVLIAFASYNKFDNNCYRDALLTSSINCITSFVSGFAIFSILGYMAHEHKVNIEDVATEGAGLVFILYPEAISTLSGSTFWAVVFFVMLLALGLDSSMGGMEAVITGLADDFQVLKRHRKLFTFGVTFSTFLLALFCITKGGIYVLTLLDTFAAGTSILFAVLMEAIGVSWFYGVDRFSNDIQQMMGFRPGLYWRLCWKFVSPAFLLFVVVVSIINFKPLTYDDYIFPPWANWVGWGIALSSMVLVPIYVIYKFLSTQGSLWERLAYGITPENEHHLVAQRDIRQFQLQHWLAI
Sequence of Sodium-dependent dopamine transporter (Q01959 whole entry): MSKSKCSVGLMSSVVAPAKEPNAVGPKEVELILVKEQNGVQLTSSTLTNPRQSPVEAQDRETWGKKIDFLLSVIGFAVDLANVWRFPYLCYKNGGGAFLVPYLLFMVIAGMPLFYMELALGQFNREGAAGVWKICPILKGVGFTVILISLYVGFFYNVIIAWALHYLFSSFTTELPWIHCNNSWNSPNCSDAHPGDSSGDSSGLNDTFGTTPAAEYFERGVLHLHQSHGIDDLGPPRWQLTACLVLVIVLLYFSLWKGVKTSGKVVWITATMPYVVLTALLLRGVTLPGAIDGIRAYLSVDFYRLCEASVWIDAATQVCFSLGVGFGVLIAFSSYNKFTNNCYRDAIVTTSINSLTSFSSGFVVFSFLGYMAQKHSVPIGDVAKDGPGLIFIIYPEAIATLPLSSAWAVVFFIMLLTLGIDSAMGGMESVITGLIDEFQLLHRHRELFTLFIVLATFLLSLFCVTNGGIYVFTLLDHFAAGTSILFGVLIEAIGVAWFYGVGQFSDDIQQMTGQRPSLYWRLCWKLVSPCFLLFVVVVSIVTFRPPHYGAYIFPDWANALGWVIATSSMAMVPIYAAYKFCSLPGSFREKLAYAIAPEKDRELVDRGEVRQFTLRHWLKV

Row | SMILES | Activity [1] [%] | IC50 [2] [nM] | Activity [3] [%] | Activity [4] | Activity [8] | Activity [9] [%] | Activity [10] [%] | Activity [11] [%] | Activity [12] [%] | Activity [13] [%] | Activity [14] [%] | Activity [16] | Activity [18] [%] | Activity [20] [%] | Activity [21] [%] | Activity [24] [%] | Activity [25] [%] | Activity [27] [%] | Activity [28] [%] | Activity [33] [%] | further results
1 | COC(=O)[C@H]1C2CCC(C[C@@H]1c1ccc(Br)cc1)N2C (stereo not given in full) | 19 | 15.7 | 123 | Active | Active | 9 | 49 | 25 | 86 | 29 | 17 | Active | -33 | 373 | 74 | 901 | 268 | 100 | 267 | 640 | Activity [5]: Active; IC50 [6]: 570 nM; Ki [6]: 140 nM; Activity [7]: Active; Activity [15]: Active; ED50 [17]: 10 mg/kg; Activity [19]: Active; Activity [22]: 26%; Activity [23]: Active; Activity [26]: Active; Activity [29]: Active; Activity [30]: -5%; ED50 [31]: 7.29 mg/kg; Activity [32]: 56%
2 | COC(=O)[C@@H]1C2CCC(C[C@H]1c1ccc(C)cc1)N2C (stereo not given in full) | 28 | 10.2 | 29 | Active | Active |  | 294 | 29 | 43 | -41 | 43 |  | 482 | -66 | 22 | 5 | 149 | -6 | 108 | 147 | Activity [34]: 100%; Activity [35]: 75%; Activity [36]: 263%; Activity [37]: 0%; ED50 [17]: 14.7 mg/kg; Activity [38]: 14%; Activity [39]: 436%; Activity [40]: Active; Activity [41]: 843%; Activity [42]: 18%; IC50 [43]: 270 nM; Ki [43]: 160 nM; ED50 [31]: 7.73 mg/kg; Activity [44]: Active
3 | COC(=O)[C@H]1[C@H]2CCC(C[C@H]1c1ccc(Cl)cc1)N2C | 16 |  | 128 |  |  | 6 | 51 | 0 | 13 | 69 | 13 | Active | -46 | -27 | 41 | 125 | 169 | 107 | 114 | -27 | Activity [37]: 13%; Activity [22]: 182%; Activity [23]: Active; Activity [29]: Active; Activity [30]: 45%; Activity [45]: Active; Activity [32]: 154%
